Experimental data as given in PubChem BioAssay (NCI).
Where “and” joins values, the source holds several entries; their conditions need not be identical. Equal entries are not always repeated.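 All cell lines were grown in 96-well plates and treated with compound for 48 hours. GI50 is the concentration that inhibits growth by half. Definition used: TGI = concentration required for complete inhibition of growth.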

How the values were obtained:
Test in all cases: NCI anticancer screen, dose series, 48 h
MCF7 breast = tested on: MCF7 breast
A549 NSCLC = tested on: A549 NSCLC
TK-10 renal = tested on: TK-10 renal
UACC-257 melanoma = tested on: UACC-257 melanoma
COLO 205 colon = tested on: COLO 205 colon
T-47D breast = tested on: T-47D breast
SW-620 colon = tested on: SW-620 colon
LOX IMVI melanoma = tested on: LOX IMVI melanoma
NCI-H226 lung = tested on: NCI-H226 lung
MDA-MB-231 breast = tested on: MDA-MB-231 breast
HCT-116 colon = tested on: HCT-116 colon
SK-MEL-2 melanoma = tested on: SK-MEL-2 melanoma
SNB-19 CNS = tested on: SNB-19 CNS
RXF 393 renal = tested on: RXF 393 renal
MDA-MB-435 = tested on: MDA-MB-435
U251 CNS = tested on: U251 CNS
SF-268 CNS = tested on: SF-268 CNS
HCT-15 colon = tested on: HCT-15 colon
K-562 leukemia = tested on: K-562 leukemia
UACC-62 melanoma = tested on: UACC-62 melanoma
NCI-H23 lung = tested on: NCI-H23 lung
UO-31 renal = tested on: UO-31 renal
ACHN renal = tested on: ACHN renal
HOP-62 NSCLC = tested on: HOP-62 NSCLC
SK-OV-3 ovarian = tested on: SK-OV-3 ovarian
IGROV1 ovarian = tested on: IGROV1 ovarian
BT-549 breast = tested on: BT-549 breast
RPMI-8226 leukemia = tested on: RPMI-8226 leukemia
NCI-H460 lung = tested on: NCI-H460 lung
SK-MEL-28 melanoma = tested on: SK-MEL-28 melanoma
HOP-92 NSCLC = tested on: HOP-92 NSCLC
HS 578T breast = tested on: HS 578T breast
EKVX NSCLC = tested on: EKVX NSCLC
OVCAR-8 ovarian = tested on: OVCAR-8 ovarian
SF-539 CNS = tested on: SF-539 CNS
OVCAR-5 ovarian = tested on: OVCAR-5 ovarian
OVCAR-3 ovarian = tested on: OVCAR-3 ovarian
NCI-H522 lung = tested on: NCI-H522 lung
SK-MEL-5 melanoma = tested on: SK-MEL-5 melanoma
OVCAR-4 ovarian = tested on: OVCAR-4 ovarian
CCRF-CEM leukemia = tested on: CCRF-CEM leukemia
A498 renal = tested on: A498 renal
MOLT-4 leukemia = tested on: MOLT-4 leukemia
M14 melanoma = tested on: M14 melanoma
CAKI-1 renal = tested on: CAKI-1 renal
NCI/ADR-RES ovarian = tested on: NCI/ADR-RES ovarian
SNB-75 CNS = tested on: SNB-75 CNS
KM12 colon = tested on: KM12 colon
SF-295 CNS = tested on: SF-295 CNS
SR leukemia = tested on: SR leukemia
HCC-2998 colon = tested on: HCC-2998 colon
HL-60(TB) leukemia = tested on: HL-60(TB) leukemia
HT29 colon = tested on: HT29 colon
786-0 renal = tested on: 786-0 renal
PC-3 prostate = tested on: PC-3 prostate
SN12C renal = tested on: SN12C renal
DU-145 prostate = tested on: DU-145 prostate
MALME-3M melanoma = tested on: MALME-3M melanoma

Structure (SMILES): Cc1ccc(NC(=O)c2ccc(CN3CC[C@H](N(C)C)C3)c(C(F)(F)F)c2)cc1Nc1nccc(-c2cncnc2)n1
- GI50 (MCF7 breast): 6.63 µM and > 10 µM
- TGI (MCF7 breast): 24.6 µM and > 10 µM
- GI50 (A549 NSCLC): 11.3 µM and > 10 µM
- TGI (A549 NSCLC): 28.5 µM and > 10 µM
- GI50 (TK-10 renal): 15 µM and > 10 µM
- TGI (TK-10 renal): 28.4 µM and > 10 µM
- GI50 (UACC-257 melanoma): 1.44 µM and 1.14 µM
- TGI (UACC-257 melanoma): 6.74 µM and 3.53 µM
- GI50 (COLO 205 colon): 0.331 µM and 0.423 µM
- TGI (COLO 205 colon): 6.65 µM and > 10 µM
- GI50 (T-47D breast): 5.16 µM and > 10 µM
- TGI (T-47D breast): 12.2 µM and > 10 µM
- GI50 (SW-620 colon): 6.15 µM and > 10 µM
- TGI (SW-620 colon): 22.1 µM and > 10 µM
- GI50 (LOX IMVI melanoma): 0.936 µM and 0.952 µM
- TGI (LOX IMVI melanoma): 7.14 µM and > 10 µM
- GI50 (NCI-H226 lung): 15.2 µM and > 10 µM
- TGI (NCI-H226 lung): 36.6 µM and > 10 µM
- GI50 (MDA-MB-231 breast): 1.42 µM and 1.98 µM
- TGI (MDA-MB-231 breast): 7.82 µM and > 10 µM
- GI50 (HCT-116 colon): 1.62 µM and 2.61 µM
- TGI (HCT-116 colon): 9.9 µM and > 10 µM
- GI50 (SK-MEL-2 melanoma): 2.64 µM and 2.5 µM
- TGI (SK-MEL-2 melanoma): 13.3 µM and > 10 µM
- GI50 (SNB-19 CNS): 10.9 µM and > 10 µM
- TGI (SNB-19 CNS): 31.7 µM and > 10 µM
- GI50 (RXF 393 renal): 11.9 µM and 9.4 µM
- TGI (RXF 393 renal): 27 µM and > 10 µM
- GI50 (MDA-MB-435): 1.73 µM and 3.1 µM
- TGI (MDA-MB-435): 15.6 µM and > 10 µM
- GI50 (U251 CNS): 6.28 µM and 6.5 µM
- TGI (U251 CNS): 17.3 µM and > 10 µM
- GI50 (SF-268 CNS): 10.4 µM and > 10 µM
- TGI (SF-268 CNS): 28.5 µM and > 10 µM
- GI50 (HCT-15 colon): 4.47 µM and 5.13 µM
- TGI (HCT-15 colon): 23.5 µM and > 10 µM
- GI50 (K-562 leukemia): 0.00433 µM
- TGI (K-562 leukemia): 5.6 µM and > 10 µM
- GI50 (UACC-62 melanoma): 1.05 µM and 0.387 µM
- TGI (UACC-62 melanoma): 15.7 µM and > 10 µM
- GI50 (NCI-H23 lung): 5.61 µM and 8.08 µM
- TGI (NCI-H23 lung): 26.5 µM and > 10 µM
- GI50 (UO-31 renal): 6.69 µM and 5.17 µM
- TGI (UO-31 renal): 21.9 µM and > 10 µM
- GI50 (ACHN renal): 4.04 µM and 8.38 µM
- TGI (ACHN renal): 14.8 µM and > 10 µM
- GI50 (HOP-62 NSCLC): 9.83 µM and 9.62 µM
- TGI (HOP-62 NSCLC): 24.5 µM and > 10 µM
- GI50 (SK-OV-3 ovarian): 16 µM and > 10 µM
- TGI (SK-OV-3 ovarian): 32.1 µM and > 10 µM
- GI50 (IGROV1 ovarian): 7.21 µM and 5.14 µM
- TGI (IGROV1 ovarian): 24.8 µM and > 10 µM
- GI50 (BT-549 breast): 5.96 µM and > 10 µM
- TGI (BT-549 breast): 13.3 µM and > 10 µM
- GI50 (RPMI-8226 leukemia): 5.08 µM and 4.4 µM
- TGI (RPMI-8226 leukemia): 24 µM and > 10 µM
- GI50 (NCI-H460 lung): 2.99 µM and 8.15 µM
- TGI (NCI-H460 lung): 9.95 µM and > 10 µM
- GI50 (SK-MEL-28 melanoma): 0.798 µM and 0.635 µM
- TGI (SK-MEL-28 melanoma): 5.53 µM and > 10 µM
- GI50 (HOP-92 NSCLC): 5.1 µM and 1.66 µM
- TGI (HOP-92 NSCLC): 22 µM and > 10 µM
- GI50 (HS 578T breast): 7.62 µM and 2.23 µM
- TGI (HS 578T breast): 35.6 µM and > 10 µM
- GI50 (EKVX NSCLC): 14.6 µM and > 10 µM
- TGI (EKVX NSCLC): 40 µM and > 10 µM
- GI50 (OVCAR-8 ovarian): 13.8 µM and > 10 µM
- TGI (OVCAR-8 ovarian): 36.1 µM and > 10 µM
- GI50 (SF-539 CNS): 4.5 µM and 6.26 µM
- TGI (SF-539 CNS): 9.34 µM and > 10 µM
- GI50 (OVCAR-5 ovarian): 5.5 µM and 6.04 µM
- TGI (OVCAR-5 ovarian): 24.2 µM and > 10 µM
- GI50 (OVCAR-3 ovarian): 6.12 µM and 8.64 µM
- TGI (OVCAR-3 ovarian): 20.5 µM and > 10 µM
- GI50 (NCI-H522 lung): 4.5 µM and > 10 µM
- TGI (NCI-H522 lung): 13.1 µM and > 10 µM
- GI50 (SK-MEL-5 melanoma): 3.79 µM and 4.05 µM
- TGI (SK-MEL-5 melanoma): 9.07 µM and > 10 µM
- GI50 (OVCAR-4 ovarian): 10.9 µM and > 10 µM
- TGI (OVCAR-4 ovarian): 30.1 µM and > 10 µM
- GI50 (CCRF-CEM leukemia): 7.23 µM and 4.55 µM
- TGI (CCRF-CEM leukemia): 30.9 µM and > 10 µM
- GI50 (A498 renal): 12.1 µM and > 10 µM
- TGI (A498 renal): 27.1 µM and > 10 µM
- GI50 (MOLT-4 leukemia): 5.23 µM and 3.69 µM
- TGI (MOLT-4 leukemia): 21.4 µM and > 10 µM
- GI50 (M14 melanoma): 0.425 µM and 0.668 µM
- TGI (M14 melanoma): 4.9 µM and > 10 µM
- GI50 (CAKI-1 renal): 9.06 µM and > 10 µM
- TGI (CAKI-1 renal): 27.4 µM and > 10 µM
- GI50 (NCI/ADR-RES ovarian): 12.5 µM and > 10 µM
- TGI (NCI/ADR-RES ovarian): 45.1 µM and > 10 µM
- GI50 (SNB-75 CNS): 10.3 µM and > 10 µM
- TGI (SNB-75 CNS): 22.8 µM and > 10 µM
- GI50 (KM12 colon): 6.65 µM and > 10 µM
- TGI (KM12 colon): 23.5 µM and > 10 µM
- GI50 (SF-295 CNS): 4.85 µM and > 10 µM
- TGI (SF-295 CNS): 12.5 µM and > 10 µM
- GI50 (SR leukemia): 2.79 µM and 1.99 µM
- TGI (SR leukemia): > 24.4 µM and 5.04 µM
- GI50 (HCC-2998 colon): 10.8 µM and > 10 µM
- TGI (HCC-2998 colon): 28 µM and > 10 µM
- GI50 (HL-60(TB) leukemia): 5.85 µM and 0.758 µM
- TGI (HL-60(TB) leukemia): 22.6 µM and > 10 µM
- GI50 (HT29 colon): 0.606 µM and 0.637 µM
- TGI (HT29 colon): 15.7 µM and > 10 µM
- GI50 (786-0 renal): 6.11 µM and 6.67 µM
- TGI (786-0 renal): 14.9 µM and > 10 µM
- GI50 (PC-3 prostate): 13.4 µM and > 10 µM
- TGI (PC-3 prostate): 35 µM and > 10 µM
- GI50 (SN12C renal): 14.2 µM and > 10 µM
- TGI (SN12C renal): 34.4 µM and > 10 µM
- GI50 (DU-145 prostate): 12 µM and > 10 µM
- TGI (DU-145 prostate): 29.6 µM and > 10 µM
- GI50 (MALME-3M melanoma): 0.217 µM and 0.402 µM
